From patent US20040077634A1, “Treatment of diseases characterized by excessive or insufficient cell death” (priority 2001, published 2004)

Key:
[1] = tested on: caspase-9, caspase-3 and caspase-7 processing; DFF45/ICAD and PARP cleavage; assay: Processing of caspases and caspase substrates in Cc/dATP-stimulated cell extract, Western blotting; assay type: biochemical
Method: Activation of endogene caspases is induced by addition of 1 mM dATP and 1 μM horse heart cytochrome c to cytosolic extract (protein concentration; 5-10 mg/ml) in the presence of DEVD-AFC and the compound (final concentration 100 μM). Activated DEVD'ases (AFC release) is measured by fluorometry in 96-well plates at 37° C. After end measurements 2× LSB-Mechaptoethanol are added to the samples for assessment of caspase processing by immunoblot analysis.
Next, the effect of the compounds on the processing of caspases and caspase substrates in the in vitro model system was analysed by Western blotting. Caspase-9, caspase-3 and caspase-7 were processed into p35, p17, and p20 active fragments, respectively, in response to Cc/dATP. Accordingly, Cc/dATP induced a threefold induction in DEVDase activity and cleavage of the caspase-3 substrates DFF45/ICAD and PARP.

[2] = tested on: WEHI-S fibrosarcoma cells; assay: TNF-induced caspase-independent cell death of WEHI-S fibrosarcoma cells; assay type: cell-based; conditions: 50-10 μM
[3] = target: T1, apoptosome complex (Apaf-1 and caspase-9) (Homo sapiens, UniProt O14727+P55211); assay: Apoptosome formation: co-immunoprecipitation of Apaf-1 with caspase-9 in cell extract; assay type: binding; conditions: 100 μM
T1 construct: Caspase-9 antibody precipitated practically all caspase-9 present in the cell extract; endogenous in cells; host or cells: cell extract
T1 sequence (O14727 1-1248): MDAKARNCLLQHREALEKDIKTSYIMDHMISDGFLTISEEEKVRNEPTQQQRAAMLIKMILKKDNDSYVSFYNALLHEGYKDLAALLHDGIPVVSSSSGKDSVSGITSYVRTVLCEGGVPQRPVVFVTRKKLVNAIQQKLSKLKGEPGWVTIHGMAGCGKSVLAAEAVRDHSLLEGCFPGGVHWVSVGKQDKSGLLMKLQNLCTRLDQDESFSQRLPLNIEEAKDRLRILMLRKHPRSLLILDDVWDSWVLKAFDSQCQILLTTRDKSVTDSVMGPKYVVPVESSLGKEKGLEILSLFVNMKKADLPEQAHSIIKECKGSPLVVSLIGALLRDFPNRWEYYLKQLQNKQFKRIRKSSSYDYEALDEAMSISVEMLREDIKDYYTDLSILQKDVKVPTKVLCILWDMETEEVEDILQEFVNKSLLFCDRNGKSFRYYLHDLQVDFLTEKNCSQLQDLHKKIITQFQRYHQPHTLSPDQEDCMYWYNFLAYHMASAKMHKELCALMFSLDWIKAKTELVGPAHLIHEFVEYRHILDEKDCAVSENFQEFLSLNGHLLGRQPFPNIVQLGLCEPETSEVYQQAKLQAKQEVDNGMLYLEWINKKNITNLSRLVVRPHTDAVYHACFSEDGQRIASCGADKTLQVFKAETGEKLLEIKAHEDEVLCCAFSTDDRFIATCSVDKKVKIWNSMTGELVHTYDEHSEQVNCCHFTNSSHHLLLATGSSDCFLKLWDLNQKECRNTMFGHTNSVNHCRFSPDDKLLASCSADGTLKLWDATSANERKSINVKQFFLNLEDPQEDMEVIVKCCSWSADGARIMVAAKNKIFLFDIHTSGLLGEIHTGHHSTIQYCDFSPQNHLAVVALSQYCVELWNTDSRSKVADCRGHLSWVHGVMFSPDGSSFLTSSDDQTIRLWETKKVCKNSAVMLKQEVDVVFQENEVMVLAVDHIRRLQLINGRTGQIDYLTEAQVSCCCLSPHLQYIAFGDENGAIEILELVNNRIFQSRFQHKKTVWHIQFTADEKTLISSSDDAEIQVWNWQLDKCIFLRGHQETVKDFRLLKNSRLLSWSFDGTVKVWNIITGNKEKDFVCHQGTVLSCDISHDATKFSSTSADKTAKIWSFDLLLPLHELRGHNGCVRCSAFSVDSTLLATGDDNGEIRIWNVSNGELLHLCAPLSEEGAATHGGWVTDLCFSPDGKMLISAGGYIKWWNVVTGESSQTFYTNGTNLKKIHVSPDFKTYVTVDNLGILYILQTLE
T1 sequence (P55211 1-416): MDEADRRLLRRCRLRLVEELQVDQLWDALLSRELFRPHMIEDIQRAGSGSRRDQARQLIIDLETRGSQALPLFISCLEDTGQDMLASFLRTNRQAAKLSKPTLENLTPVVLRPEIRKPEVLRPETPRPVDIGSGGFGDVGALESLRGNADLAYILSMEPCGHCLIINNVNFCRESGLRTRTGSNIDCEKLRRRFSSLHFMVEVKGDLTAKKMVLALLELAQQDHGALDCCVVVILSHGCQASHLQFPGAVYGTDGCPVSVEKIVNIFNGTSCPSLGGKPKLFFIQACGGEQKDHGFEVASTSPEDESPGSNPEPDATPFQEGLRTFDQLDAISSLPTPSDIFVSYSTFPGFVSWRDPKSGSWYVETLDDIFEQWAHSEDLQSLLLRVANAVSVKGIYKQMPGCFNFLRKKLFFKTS
Method: Next, it was tested whether compound f interferes with the formation of apoptosome complex in response to Cc/dATP. Cell extracts were incubated with Cc/dATP in the presence or absence of 100 μM compound f or 1 μM zVAD-fmk for 1 hour prior to the immunoprecipitation (IP) of caspase-9. […] Hsp90, which has been proposed to associate with Apaf-1 and prevent oligomerization and caspase-9 recruitment, was not co-immunoprecipitated with caspase-9.

recombinant caspase-3 = target: T2, recombinant caspase-3 (Homo sapiens, UniProt P42574); assay: Recombinant caspase-3 activity, cleavage of DEVD-AFC; assay type: biochemical; conditions: 25 to 100 μM; DEVD-AFC substrate
T2 sequence (P42574 29-175 limits assumed): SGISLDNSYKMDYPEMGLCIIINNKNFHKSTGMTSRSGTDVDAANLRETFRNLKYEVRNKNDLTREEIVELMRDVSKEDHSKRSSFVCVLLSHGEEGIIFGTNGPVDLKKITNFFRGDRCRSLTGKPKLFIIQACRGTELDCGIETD
T2 sequence (P42574 176-277 limits assumed): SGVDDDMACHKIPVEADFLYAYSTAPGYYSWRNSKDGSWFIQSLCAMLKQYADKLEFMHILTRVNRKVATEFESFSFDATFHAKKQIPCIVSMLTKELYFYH
Method: To test if compounds a, f, and g were specific caspase inhibitors, recombinant caspase-3 and caspase-9 were incubated with the three compounds and the enzymatic activities of caspases were monitored by analysing the cleavage of the caspase-3 substrate DEVD-AFC or the caspase-9 substrate LEHD-AFC, respectively.

## O=C(Nc1cccc(C(F)(F)F)c1)Nc1cc(Cl)ccc1C(=O)O [Compound f, [N-(2-Carboxy-5-chlorophenyl)-N′-(3-trifluoromethylphenyl)]urea]
[1]; 10 μM, compared with the vehicle control
  processing of caspase-9: slightly more procaspase-9 remained unprocessed
[1]; 100 μM
  processing of caspase-9: almost completely inhibited
[1]; cell extracts stimulated with Cc/dATP, Western blot, dose dependence
  inhibition of caspase-9, -3 and -7 processing and DFF45/ICAD and PARP cleavage: dose-dependent inhibition
[2]
  inhibition of the TNF-induced cell death: No inhibition
[3]
  ability of the caspase-9 antibody to precipitate caspase-9: no effect
[3]; 1 hour with Cc/dATP prior to IP of caspase-9
  co-immunoprecipitation of Apaf-1 and caspase-9: significantly inhibited
Recombinant caspase-3
  inhibition of recombinant caspase-3 activity: failed to inhibit
